Experimental data taken from patent US11786555B2, “RAR selective agonists in combination with immune modulators for cancer immunotherapy” (IO THERAPEUTICS, INC., priority 2017, dated 2023).

Tested on: naive CD4+ CD25− FoxP3− cells
Test: in vitro Th17 cell differentiation
Type: cell-based, mouse
Settings: 0.1 nM
Procedure: To determine whether a RARα agonist could affect T cell differentiation, T cells were incubated with a RARα agonist to determine its effect on Foxp3 expression. Naive CD4^+ CD25^− FoxP3^− cells were purified from a Foxp3-GFP mouse using flow cytometry by sorting and isolating based upon a GFP^− phenotype. These cells were activated polyclonally with αCD3 in vitro in the presence of IL-2 and TGF-β. These cells were then cultured in media with various concentrations of compound IRX5183 (a RARα agonist) and the expression of FoxP3-GFP was analyzed by flow cytometry. The RARα agonist compound IRX5183 enhanced differentiation of immunosuppressive Treg cells and inhibited differentiation of inflammatory TH17 cells from naïve T cells in vitro (Table 2).

## CC1(C)CCC(C)(C)c2c1cc(C(=O)Nc1cc(F)c(C(=O)O)c(F)c1)c(O)c2Cl [IRX5183]
  Th17 cell Percent Differentiation: 32%
